Laboratory results from patent US20110319392A1, “Thiazole Sulfonamide And Oxazole Sulfonamide Kinase Inhibitors” (priority 2009, published 2011).

What was measured:
EGFR = target: T1, EGFR (Homo sapiens, UniProt P00533); experiment: EGFR substrate phosphorylation assay (HTRF); type: biochemical
T1 construct: made in house; host or cells: baculovirus expression system
Method: (§1) Compounds of the present invention were tested for EGFR and ErbB-2 protein tyrosine kinase inhibitory activity in substrate phosphorylation assays using enzymes purified from a baculovirus expression system. Reagent production was conducted essentially as described in Brignola, P. S., et al, (2002) J. Biol. Chem. 277(2):1576-1585.
(§2) The method measures the ability of the isolated enzyme to catalyse the transfer of the gamma-phosphate from ATP onto the tyrosine residue of a biotinylated synthetic peptide referenced “Peptide C” in Brignola, P. S., et al, (2002) J. Biol. Chem. 277(2):1576-1585. The extent of tyrosine phosphorylation was measured using an anti-phosphotyrosine antibody, and quantified by homogenous time-resolved fluorescence (HTRF).
(§3) Reactions were performed in black 384-well polystyrene flat-bottom plates in a final volume of 20 μL. Assays were performed by adding 10 μL of each of the following solutions, Substrate Mix and Enzyme Mix: The Substrate Mix contained 100 mM 3-[N-morpholino]propanesulfonic acid (MOPS) (pH 7.5), 2 mM MnCl2, 20 μM ATP, 0.01% Tween-20, 0.1 mg/mL (BSA), 0.8 uM peptide substrate, and 1 mM dithiothreitol. The Enzyme Mix contained 100 mM MOPS (pH7.5); 0.01% Tween-20; 0.1 mg/mL BSA, and either 0.8 nM EGFR, 10 nM ErbB2, or 1 nM ErbB4. The Enzyme Mix was added to the compound plates and the plates were incubated at 20° C. for 1 hr. The reactions were then started by adding the Substrate Mix.
(§4) After initiating the reaction with the method described above, the reactions were allowed to proceed for 90 minutes at 20° C. The reactions were then terminated by the addition of 20 μL 100 mM EDTA to each well. 40 μL/well of HTRF detection mix were added to the assay plates. The final concentrations of the detection reagents were: 100 mM HEPES (pH7.5), 0.1 mg/mL BSA, 15 nM streptavidin-labeled allophycocyanin (PerkinElmer), and 1 nM europium-labeled anti-phosphotyrosine antibody (Perkin Elmer). Assay plates were left unsealed and were counted in a Wallac Multilabel Counter 1420 (PerkinElmer).
(§5) Compounds under analysis were dissolved in dimethylsulfoxide (DMSO) to 1.0 mM and serially diluted 1 to 3 with DMSO through twelve dilutions. 1 μL of each concentration was transferred to the corresponding well of an assay plate. This creates a final compound concentration range from 0.00027 to 47.6 μM.
(§6) The data for dose responses were plotted as % Inhibition calculated with the data reduction formula 100*(1-(U1−C2)/(C1−C2)) versus concentration of compound where U1 is the unknown value, C1 is the average control value obtained for 4.76% DMSO, and C2 is the average control value obtained for 0.035 M EDTA. Data were fitted with a curve described by:
(§7) where Vmax is the upper asymptote, Y2 is the Y intercept, and K is the IC50. The results for each compound were recorded as pIC50s, calculated as follows: […]

B-Raf = B-Raf (Homo sapiens, UniProt P15056); experiment: B-Raf Accelerated MEK ATPase assay (BRAMA), Method A or B; type: biochemical; conditions: Method B: final MEK 150 nM, single end point read
Method: Compounds of the present invention were tested for B-Raf protein serine kinase inhibitory activity in a B-Raf Accelerated MEK ATPase assay (BRAMA). The BRAMA assay is a high sensitivity assay which measures an intrinsic MEK-mediated ATP hydrolysis uncoupled from downstream ERK phosphorylation by coupling the formation of ADP to NADH oxidation through the enzymes pyruvate kinase and lactate dehydrogenase. When ADP production is initiated by addition of catalytic amounts of an activated Raf enzyme and non-phosphorylated MEK, one observes robust ADP production concomitant with Raf-mediated phosphorylation of MEK.
Method A: Specific details of the assay are disclosed in: C. Rominger, M. Schaber, E. May. Assay for B-Raf Activity Based on Intrinsic MEK ATPase Activity. Statutory Invention Registration 11/084,993 (March, 2005). Method B: The method is the same as method A, but includes the following changes: 1) the assay was performed with a final MEK concentration of 150 nM and 2) the assay was read as single end point instead of a kinetic read.

Colo205 tumor cells = experiment: Cell growth inhibition assay (CellTiter-Glo), Colo205; type: cell-based, Human; conditions: Homo sapiens, COLO 205, 72 h; 3 days incubation
Method: (§8) Human breast tumor cells (BT474) were cultured in RPMI (Mediatech […]), containing 10% FBS (JRH Biosciences 12176) and 1% penicillin-streptomycin (Invitrogen 15140). Human head and neck tumor cells (HN5) were cultured in high glucose DMEM (Mediatech 50-013-PB) containing 10% FBS and 1% penicillin-streptomycin. Human colon tumor cells (Colo205) were cultured in RPMI (Mediatech 50-020-PB) containing 10% FBS and 1% penicillin-streptomycin. Human melanoma cancer cells (SK-MEL-28) were cultured in EMEM with nonessential amino acids (Mediatech 50-011-PB) containing 10% FBS, 1% sodium pyruvate (JT Baker 3354-04), and 1% penicillin-streptomycin. Human melanoma cancer cells (A375P F11s) were cultured in RPMI (Mediatech 50-020-PB) containing 10% FBS, 1% sodium pyruvate, and 1% penicillin-streptomycin. Human colon cancer cells (HT-29) were cultured in high glucose DMEM (Mediatech 50-013-PB) containing 10% FBS and 1% penicillin-streptomycin. Human melanoma cancer cells (SK-MEL-3) were cultured in McCoy's 5A (50-025-PB) containing 15% FBS, and 1% penicillin-streptomycin. All cell lines were maintained at 37° C. in a humidified 5% CO2, 95% air incubator. Cells were harvested using trypsin/EDTA (Invitrogen 25200), counted using a haemocytometer, and plated. For 96-well assays (using white full-area NUNC plates cat. #136102), cells were plated in 105 μL at the following densities (cells/well): HNS, 500; Colo 205, 500; SK-MEL-28, 500; A375P F11s, 500; HT-29, 500; SK-MEL-3, 500; and BT474, 3000. For 384-well assays (white full-area NUNC plates, cat. #781080), cells were plated in 48 μL at the following densities (cells/well): HNS, 500; Colo205, 500; SK-MEL-28, 500; A375P F11s, 500; HT-29, 500; SK-MEL-3, 500; and BT474, 2000.
(§9) The next day, compounds were diluted as follow: For 96-well assays, 13.5 μL of compound in DMSO were diluted using nine (9) serial 1:3 dilutions of 4.5 μL in 9 of DMSO. Medium (270 μL/well of RPMI with 10% FBS and 1% penicillin-streptomycin) was added to the plates. Aliquots (7 μL) were added to cells in the final assay giving a final DMSO concentration of 0.2%. For 384-well assays, 15 μL of compound in DMSO were diluted using nine (9) serial 1:3 dilutions of 5 μL in 10 μL of DMSO, followed by a further dilution of 5 μL of compound with 95 μL of medium, of which 2 μL were added to cells in the final assay giving a final DMSO concentration of 0.2%. Cells were incubated at 37° C., 5% CO2 for 3 days.
(§10) Total ATP was measured (as a surrogate estimate of cell number) using CellTiter-Glo® reagent (Promega G7571). Briefly, plates were removed from the incubator and allowed to equilibrate to room temperature for 30 minutes. CellTiter-Glo® (25 μL or 55 μL for 384-well or 96-well assays, respectively) reagent was added to each well and plates were shaken on an orbital plate shaker for 2 minutes. Plates were incubated without shaking for a further 30 minutes and read on an LJL Analyst GT reader in luminometer mode with an integration time of 0.5 seconds per well. Percent inhibition of cell growth was calculated relative to DMSO vehicle-treated control wells. Concentration of compound required to give 50% inhibition of vehicle-treated control cell growth (IC50) was interpolated using a 4-parameter fit for determining IC50 using the following equation: Y=A +((B−A)/(1+((C/X)̂D))) where […].

SK-MEL-28 tumor cells = experiment: Cell growth inhibition assay (CellTiter-Glo), SK-MEL-28; type: cell-based, Human; conditions: Homo sapiens, SK-MEL-28, 72 h; 3 days incubation
Method: as §8, §9, §10

ErbB2 = target: T2, ErbB2 (Homo sapiens, UniProt P04626); experiment: ErbB-2 substrate phosphorylation assay (HTRF); type: biochemical
T2 construct: made in house; host or cells: baculovirus expression system
Method: as §1, §2, §3, §4, §5, §6, §7

T1 sequence (P00533 25-1210): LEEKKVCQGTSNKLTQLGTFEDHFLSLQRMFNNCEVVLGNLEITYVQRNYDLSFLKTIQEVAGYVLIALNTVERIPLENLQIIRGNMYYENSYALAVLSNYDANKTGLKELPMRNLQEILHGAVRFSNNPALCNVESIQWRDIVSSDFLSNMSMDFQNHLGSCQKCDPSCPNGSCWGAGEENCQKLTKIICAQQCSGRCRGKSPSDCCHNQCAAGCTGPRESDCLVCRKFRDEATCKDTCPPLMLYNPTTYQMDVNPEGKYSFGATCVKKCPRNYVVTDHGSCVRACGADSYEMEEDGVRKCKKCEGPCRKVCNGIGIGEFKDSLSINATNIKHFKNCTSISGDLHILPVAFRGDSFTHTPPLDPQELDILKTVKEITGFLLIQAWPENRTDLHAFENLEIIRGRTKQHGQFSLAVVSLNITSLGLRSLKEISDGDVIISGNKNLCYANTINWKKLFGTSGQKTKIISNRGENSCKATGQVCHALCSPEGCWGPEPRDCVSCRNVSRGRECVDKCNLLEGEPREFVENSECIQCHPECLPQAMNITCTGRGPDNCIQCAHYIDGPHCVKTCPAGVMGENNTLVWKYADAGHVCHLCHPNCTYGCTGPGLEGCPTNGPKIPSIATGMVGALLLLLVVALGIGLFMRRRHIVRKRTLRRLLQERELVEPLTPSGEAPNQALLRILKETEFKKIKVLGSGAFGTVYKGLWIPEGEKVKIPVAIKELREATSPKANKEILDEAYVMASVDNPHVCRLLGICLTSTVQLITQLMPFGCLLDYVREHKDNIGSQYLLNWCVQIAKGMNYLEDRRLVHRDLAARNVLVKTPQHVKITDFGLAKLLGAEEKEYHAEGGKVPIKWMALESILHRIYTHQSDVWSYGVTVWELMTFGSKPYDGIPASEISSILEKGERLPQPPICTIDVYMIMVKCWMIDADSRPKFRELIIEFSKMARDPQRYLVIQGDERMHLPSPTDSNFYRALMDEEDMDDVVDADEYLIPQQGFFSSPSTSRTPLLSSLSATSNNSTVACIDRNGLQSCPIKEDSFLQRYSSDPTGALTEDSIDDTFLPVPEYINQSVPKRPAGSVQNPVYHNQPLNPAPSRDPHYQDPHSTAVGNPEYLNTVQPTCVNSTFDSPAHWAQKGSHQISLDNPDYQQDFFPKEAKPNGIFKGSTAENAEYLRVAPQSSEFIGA
T2 sequence (P04626 23-1255): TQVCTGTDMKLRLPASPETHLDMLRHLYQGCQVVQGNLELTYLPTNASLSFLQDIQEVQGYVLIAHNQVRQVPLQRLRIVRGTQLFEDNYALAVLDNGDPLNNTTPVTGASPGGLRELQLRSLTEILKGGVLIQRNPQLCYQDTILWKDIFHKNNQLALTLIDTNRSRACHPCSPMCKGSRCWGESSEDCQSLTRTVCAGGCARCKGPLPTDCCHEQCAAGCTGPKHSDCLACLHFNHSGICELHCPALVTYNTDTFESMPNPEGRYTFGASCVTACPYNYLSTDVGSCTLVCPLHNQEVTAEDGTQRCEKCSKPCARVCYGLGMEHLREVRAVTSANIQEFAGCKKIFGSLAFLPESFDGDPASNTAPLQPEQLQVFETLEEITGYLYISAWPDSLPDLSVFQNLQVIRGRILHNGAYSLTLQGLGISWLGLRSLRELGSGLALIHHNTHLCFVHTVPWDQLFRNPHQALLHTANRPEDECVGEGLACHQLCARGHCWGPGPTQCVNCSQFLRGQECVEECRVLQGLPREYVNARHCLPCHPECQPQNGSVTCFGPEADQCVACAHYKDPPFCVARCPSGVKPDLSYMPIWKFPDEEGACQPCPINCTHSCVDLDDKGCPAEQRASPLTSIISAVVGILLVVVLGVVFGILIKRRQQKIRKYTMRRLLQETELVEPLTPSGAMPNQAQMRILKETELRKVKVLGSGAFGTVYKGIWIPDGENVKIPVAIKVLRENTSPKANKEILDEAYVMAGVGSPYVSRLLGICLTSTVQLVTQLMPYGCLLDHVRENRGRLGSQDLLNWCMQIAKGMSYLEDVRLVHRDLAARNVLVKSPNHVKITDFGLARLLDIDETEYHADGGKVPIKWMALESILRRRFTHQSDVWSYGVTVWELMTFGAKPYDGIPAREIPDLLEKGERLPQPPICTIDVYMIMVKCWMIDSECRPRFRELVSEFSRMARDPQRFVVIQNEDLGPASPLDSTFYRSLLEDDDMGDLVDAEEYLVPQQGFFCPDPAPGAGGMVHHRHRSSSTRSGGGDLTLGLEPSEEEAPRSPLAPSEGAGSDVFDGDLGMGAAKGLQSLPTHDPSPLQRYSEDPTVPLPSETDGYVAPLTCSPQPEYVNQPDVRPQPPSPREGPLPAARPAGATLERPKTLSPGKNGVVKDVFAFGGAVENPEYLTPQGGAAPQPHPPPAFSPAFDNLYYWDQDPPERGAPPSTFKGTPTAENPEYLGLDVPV
Chain of B-Raf (P15056 whole entry): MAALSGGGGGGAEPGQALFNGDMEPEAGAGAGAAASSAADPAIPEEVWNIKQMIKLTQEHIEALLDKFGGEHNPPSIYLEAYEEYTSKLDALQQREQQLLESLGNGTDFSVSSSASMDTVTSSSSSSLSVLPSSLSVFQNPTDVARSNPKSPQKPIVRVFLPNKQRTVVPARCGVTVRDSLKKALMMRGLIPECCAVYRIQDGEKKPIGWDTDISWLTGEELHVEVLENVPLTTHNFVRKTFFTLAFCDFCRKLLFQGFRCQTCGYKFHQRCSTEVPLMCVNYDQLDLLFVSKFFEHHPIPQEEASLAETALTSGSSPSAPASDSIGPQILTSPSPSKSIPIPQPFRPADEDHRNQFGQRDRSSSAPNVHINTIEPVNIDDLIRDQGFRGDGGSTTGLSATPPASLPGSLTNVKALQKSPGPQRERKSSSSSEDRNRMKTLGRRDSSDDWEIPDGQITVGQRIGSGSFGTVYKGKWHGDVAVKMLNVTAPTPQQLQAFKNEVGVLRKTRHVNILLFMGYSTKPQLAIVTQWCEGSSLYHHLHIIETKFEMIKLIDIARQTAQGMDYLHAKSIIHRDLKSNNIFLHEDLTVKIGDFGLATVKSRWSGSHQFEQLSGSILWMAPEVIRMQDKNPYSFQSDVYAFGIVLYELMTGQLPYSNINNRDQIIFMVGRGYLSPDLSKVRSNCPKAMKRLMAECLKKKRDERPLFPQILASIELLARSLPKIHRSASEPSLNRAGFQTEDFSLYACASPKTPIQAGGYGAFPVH

Row | SMILES | IC50 (EGFR) | IC50 (B-Raf) | IC50 (Colo205 tumor cells) | IC50 (SK-MEL-28 tumor cells) | IC50 (ErbB2)
1 | CCc1nc(-c2cccc(CNS(=O)(=O)c3ccccc3)c2)c(-c2ccnc(Nc3ccc(N4CCN(CCS(C)(=O)=O)CC4)c(F)c3)n2)s1 [Example 35] | 100 to 1000 nM | 100 to 1000 nM | > 1000 nM | > 1000 nM | 100 to 1000 nM
2 | COc1ccc(Nc2nccc(-c3sc(C(C)C)nc3-c3cccc(NS(=O)(=O)Cc4ccccc4)c3)n2)cc1N1CCN(CCS(C)(=O)=O)CC1 [Example 37] | < 100 nM | 100 to 1000 nM | > 1000 nM | > 1000 nM | < 100 nM
3 | CC(C)c1nc(-c2cccc(NS(=O)(=O)c3cn(C)nc3C(F)(F)F)c2)c(-c2ccnc(Nc3ccc(N4CCOCC4)nc3)n2)s1 [Example 40] | > 1000 nM | 100 to 1000 nM | > 1000 nM | > 1000 nM | > 1000 nM
4 | Cc1[nH]c(=O)[nH]c(=O)c1S(=O)(=O)Nc1cccc(-c2nc(C(C)C)sc2-c2ccnc(Nc3ccc(N4CCOCC4)nc3)n2)c1 [Example 41] | > 1000 nM | 100 to 1000 nM | > 1000 nM | > 1000 nM | > 1000 nM
5 | COc1cc(N2CCN(CCS(C)(=O)=O)CC2)c(C)cc1Nc1nccc(-c2sc(C(C)C)nc2-c2cccc(NS(=O)(=O)c3cn(C)cn3)c2)n1 [Example 43] | > 1000 nM | 100 to 1000 nM | > 1000 nM | > 1000 nM | 100 to 1000 nM
6 | COc1cc(N2CCN(CCS(C)(=O)=O)CC2)c(C)cc1Nc1nccc(-c2sc(C(C)C)nc2-c2cccc(NS(=O)(=O)c3c(F)cccc3F)n2)n1 [Example 45] | < 100 nM | 100 to 1000 nM | 100 to 1000 nM | 100 to 1000 nM | < 100 nM
7 | COc1cc(N2CCN(CCS(C)(=O)=O)CC2)c(C)cc1Nc1nccc(-c2sc(C(C)C)nc2-c2cncc(NS(=O)(=O)c3c(F)cccc3F)c2)n1 [Example 48] | > 1000 nM | 100 to 1000 nM | < 100 nM | 100 to 1000 nM | < 100 nM
8 | COc1cc(N2CCN(CCS(C)(=O)=O)CC2)c(C)cc1Nc1nccc(-c2sc(C(C)C)nc2-c2cccc(NS(=O)(=O)c3cccs3)c2)n1 [Example 50] | < 100 nM | < 100 nM | < 100 nM | 100 to 1000 nM | < 100 nM
9 | COc1cc(N2CCN(CCS(C)(=O)=O)CC2)c(C)cc1Nc1nccc(-c2sc(C(C)C)nc2-c2cccc(NS(=O)(=O)c3cccnc3)c2)n1 [Example 54] | 100 to 1000 nM | < 100 nM | < 100 nM | < 100 nM | < 100 nM
10 | COc1cc(N2CCN(CCS(C)(=O)=O)CC2)c(C)cc1Nc1nccc(-c2sc(C(C)C)nc2-c2cccc(NS(=O)(=O)c3ccco3)c2)n1 [Example 55] | < 100 nM | < 100 nM | < 100 nM | 100 to 1000 nM | < 100 nM
11 | O=S(=O)(Nc1cc(-c2nc(N3CCCC3)oc2-c2ccnc(Nc3ccc(N4CCOCC4)c(F)c3)n2)ccc1F)c1ccccc1F [Example 59] | > 1000 nM | < 100 nM | 100 to 1000 nM | 100 to 1000 nM | > 1000 nM
12 | CS(=O)(=O)N1CCN(c2ccc(Nc3nccc(-c4oc(N5CCCC5)nc4-c4ccc(F)c(NS(=O)(=O)c5ccccc5F)c4)n3)cn2)CC1 [Example 60] | > 1000 nM | < 100 nM | 100 to 1000 nM | > 1000 nM | > 1000 nM
13 | CC(C)c1nc(-c2ccc(F)c(NS(=O)(=O)c3c(F)cccc3F)c2)c(-c2ccnc(Nc3ccc(N4CCN(CCS(C)(=O)=O)CC4)c(F)c3)n2)o1 [Example 61] | > 1000 nM | < 100 nM | 100 to 1000 nM | 100 to 1000 nM | 100 to 1000 nM
14 | COc1cc(N2CCN(CCS(C)(=O)=O)CC2)c(C)cc1Nc1nccc(-c2sc(N)nc2-c2cccc(NS(=O)(=O)c3c(F)cccc3F)c2)n1 [Example 63] | 100 to 1000 nM | 100 to 1000 nM | 100 to 1000 nM | > 1000 nM | < 100 nM
15 | COc1cc(N2CCC(CCS(C)(=O)=O)CC2)c(C)cc1Nc1nccc(-c2sc(N3CCCC3)nc2-c2cccc(NS(=O)(=O)c3c(F)cccc3F)c2)n1 [Example 137] |  | 100 to 1000 nM | < 100 nM | 100 to 1000 nM | > 1000 nM
16 | COc1ccc(S(C)(=O)=O)cc1Nc1nccc(-c2sc(N3CCOCC3)nc2-c2cccc(NS(=O)(=O)c3c(F)cccc3F)c2OC)n1 [Example 168] | > 1000 nM | < 100 nM |  | > 1000 nM | > 1000 nM
